Reference: article PMC4067742, “Direct Observations of Amyloid β Self-Assembly in Live Cells Provide Insights into Differences in the Kinetics of Aβ(1–40) and Aβ(1–42) Aggregation” (Chemistry & Biology, 2014)

Tested on: SH-SY5Y cells
Assay: dSTORM superresolution imaging of intracellular aggregates
Format: cell-based, human
Settings: 500 nM monomers, fixed cells; for average size of intracellular aggregates (diameter / longest dimension) after 24 hr: pixel counting in dSTORM images, only aggregates above resolution limit (55–70 nm), n = 18–27; for change in size of intracellular aggregates between 24 and 48 hr: pixel counting in dSTORM images (Figure 5B)
Procedure: To further investigate the nature of the intracellular Aβ(1–40) and Aβ(1–42) aggregates, we used superresolution fluorescence microscopy to analyze their physical appearance. […] Thus, we treated SH-SY5Y cells with 500 nM of ^HF647Aβ(1–40) or 500 nM of ^HF647Aβ(1–42) monomers for periods of 24 and 48 h. Thereafter, the cells were fixed, immersed in switching buffer, and imaged at single-molecule resolution using a homebuilt total internal reflection fluorescence (TIRF) microscope operated under highly inclined illumination ([Tokunaga et al., 2008]) to obtain images from an image plane within the cells. Superresolved images (Figure 5A) of the intracellular ^HF647Aβ(1–40) and ^HF647Aβ(1–42) aggregates were then reconstructed as described in the Experimental Procedures. dSTORM results in a dramatic increase in resolution compared with conventional confocal imaging (Figure S4). In this case, the lateral resolution of our images was calculated to be 55–70 nm using a blind assessment density estimation approach ([Rees et al., 2012]). Features larger than the lateral resolution limit can, therefore, be interpreted with confidence as having approximately the correct size and shape. […] The ^HF647Aβ(1–42) aggregates, by contrast, appear to include both spherical and elongated species, with an average size along their longest dimension of approximately 225 nm (Figure 5B). The observation that, after 24 hr, ^HF647Aβ(1–42) forms intracellular species that are larger than those formed by ^HF647Aβ(1–40) is consistent with the differences in their mean fluorescence lifetimes (Figures 4C, 4D, and 5C). […] Comparison of the FLIM and dSTORM data recorded after 24 and 48 hr indicates a qualitative relationship between aggregate size and HF488 fluorescence lifetime (Figures 5B and 5C), supporting the conclusion that the fluorescence lifetime reflects the nature and abundance of the Aβ amyloid aggregates formed in vivo.
Human neuroblastoma cells (SH-SY5Y) were grown in 1:1 minimal essential medium (MEM) and nutrient mixture F-12 Ham (Sigma-Aldrich) with sodium bicarbonate, including 15% heat-inactivated fetal bovine serum, 1% MEM non-essential amino acids, 2 mM […], 1% penicillin-streptomycin (10,000 U/ml K1), and 0.1% fungizone (amphotericin B, […] K1) (Life Technologies). Cells were plated 1 day prior to experiments in glass-bottomed culture dishes (MatTek) at a density of 50,000 cells/14-mm dish. […]
All dSTORM experiments were carried out using HF647-labeled peptides. Fluorescence images for dSTORM were taken on a Nikon Te-300 Eclipse inverted wide field microscope, with a 100×, 1.49 numerical aperture TIRF objective lens, an Andor iXon 887DV electron-multiplying charge-coupled device camera, and a Semrock fluorescence filter set (LF405/488/561/635-A-00). […]

Substance	average size of intracellular aggregates (diameter / longest dimension) after 24 hr	change in size of intracellular aggregates between 24 and 48 hr
^HF647Aβ(1–40): Synthetic amyloid β (1–40) peptide labeled at the N terminus with Hilyte Fluor 647, purchased from Anaspec	approximately 160 nm	appear to have increased in size
^HF647Aβ(1–42): Synthetic amyloid β (1–42) peptide labeled at the N terminus with Hilyte Fluor 647, purchased from Anaspec	approximately 225 nm	no significant change in the size
